{
  "source": "patent US6376675B2",
  "about": "“Muscarinic receptor agonists” (The University of Toledo, priority 1999, dated 2002)",
  "key": {"M1 muscarinic receptors": {"target": "T1, M1 muscarinic receptors (Homo sapiens, UniProt P11229)", "T1 construct": "expressed in transfected cells; host or cells: A9 L cells", "T1 sequence (P11229 1-460)": "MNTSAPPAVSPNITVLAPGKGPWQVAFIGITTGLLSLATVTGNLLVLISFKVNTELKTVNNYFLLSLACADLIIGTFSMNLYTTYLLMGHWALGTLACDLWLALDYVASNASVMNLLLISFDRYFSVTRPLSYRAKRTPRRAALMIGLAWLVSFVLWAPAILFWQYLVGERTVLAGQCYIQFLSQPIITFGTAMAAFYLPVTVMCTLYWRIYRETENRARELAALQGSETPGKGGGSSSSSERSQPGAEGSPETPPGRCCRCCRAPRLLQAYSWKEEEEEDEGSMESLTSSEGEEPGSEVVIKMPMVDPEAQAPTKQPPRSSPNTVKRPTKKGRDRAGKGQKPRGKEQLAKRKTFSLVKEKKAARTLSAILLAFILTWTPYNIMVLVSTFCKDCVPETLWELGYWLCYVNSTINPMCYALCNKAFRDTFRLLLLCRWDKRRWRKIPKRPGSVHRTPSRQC", "assay": "Muscarinic receptor binding at M1 receptors", "details": "for affinity for muscarinic receptors: as compared to the parent compound xanomeline; for Ki: Table 3", "from_the_text": "(§1) The compounds of Formula III incorporate hydrogen bonding elements as ester isosteres (i.e., alcohols, […], 1,2,5-thiadiazoles) at the end of an alkyl or alkyloxy linking group as shown below. The compounds lack a second tetrahydropyridine moiety."}, "[1]": {"target": "T2, M1 muscarinic receptors expressed in A9 L cells (Homo sapiens, UniProt P11229)", "T2 construct": "expressed in transfected cells; host or cells: A9 L cells", "T2 sequence (P11229 1-460)": "T1 sequence (P11229 1-460)", "assay": "Phosphoinositide (PI) metabolism at M1 muscarinic receptors expressed in A9 L cells", "type": "cell-based", "details": "for EC50 / Phosphoinositide metabolism Smax: A9 L cells, Table 3", "from_the_text": "as §1"}},
  "note": "Counter-ions that a name gives are not always drawn.",
  "data": [
    {"smiles": "CN1CCC=C(c2nsnc2OCCCCCCCCCCCCO)C1", "note": "(as salt: hydrochloride) [CDD-0297-A, 12-[3-(1-Methyl-1,2,5,6-tetrahydropyrid-3-yl)-1,2,5-thiadiazol-4-yloxy]-1-dodecanolhydrochloride]", "values": [
      {"measurement": "melting point", "result": "97 to 98", "unit": "°C"}
    ]},
    {"smiles": "CC(=O)OCCCCCCCCCCCCOc1nsnc1C1=CCCN(C)C1", "note": "(as salt: hydrochloride) [CDD-0299-A, 12-[3-(1-Methyl-1,2,5,6-tetrahydropyrid-3-yl)-1,2,5-thiadiazol-4-yloxy]-1-dodecyl acetate hydrochloride]", "values": [
      {"measurement": "melting point", "result": "85 to 86", "unit": "°C"}
    ]},
    {"smiles": "CCOCCOCCOCCOCCOc1nsnc1C1=CCCN(C)C1", "note": "(as salt: hydrochloride) [CDD-0301-A, Tetra(ethylene glycol) ethyl [3-1-methyl-1,2,5,6-tetrahydropyrid-3-yl)-1,2,5-thiadiazol-4-yl] ether hydrochloride]", "values": [
      {"measurement": "melting point", "result": "64.5 to 66", "unit": "°C"}
    ]},
    {"smiles": "CC(=O)OCCOCCOCCOCCOc1nsnc1C1=CCCN(C)C1", "note": "(as salt: hydrochloride) [CDD-0303-A, Tetra(ethylene glycol) [3-(1-methyl-1,2,5,6-tetrahydropyrid-3-yl)-1,2,5-thiadiazol-4-yl] ether acetate hydrochloride]", "values": [
      {"measurement": "melting point", "result": "55 to 55.5", "unit": "°C"}
    ]},
    {"smiles": "CN1CCC=C(c2nsnc2OCCCCCCCCCCCCOc2nsnc2C2=CCCN(C)C2)C1", "note": "[(CH2)12, 1,12-bis-[3-(1-methyl-1,2,5,6-tetrahydropyrid-3-yl)-1,2,5-thiadiazol-4-yloxy]-dodecane]", "values": [
      {"measurement": "affinity for muscarinic receptors", "setting": "M1 muscarinic receptors", "result": "very high affinity"}
    ]},
    {"smiles": "CN1CCC=C(c2nsnc2OCCOCCOCCOCCOc2nsnc2C2=CCCN(C)C2)C1", "note": "[(CH2CH2)4O3, 2,2′-bis-{[3-(1-methyl-1,2,5,6-tetrahydropyrid-3-yl)-1,2,5-thiadiazol-4-yloxy]ethyloxy}-diethyl ether]", "values": [
      {"measurement": "affinity for muscarinic receptors", "setting": "M1 muscarinic receptors", "result": "very high affinity"},
      {"measurement": "Smax", "setting": "[1]; PI metabolism, full dose-response curves, Table 2", "result": "250 ± 36", "unit": "%"}
    ]},
    {"smiles": "CN1CCC=C(c2nsnc2OCCCCCCCCCCCCO)C1", "note": "[CDD-0297-A, 12-[3-(1-Methyl-1,2,5,6-tetrahydropyrid-3-yl)-1,2,5-thiadiazol-4-yloxy]-1-dodecanolhydrochloride]", "values": [
      {"measurement": "Ki", "setting": "M1 muscarinic receptors", "result": "16 ± 3.1", "unit": "nM"},
      {"measurement": "EC50", "setting": "[1]", "result": 2600, "unit": "nM"},
      {"measurement": "Phosphoinositide metabolism Smax", "setting": "[1]", "result": "250 ± 28", "unit": "%"}
    ]},
    {"smiles": "CC(=O)OCCCCCCCCCCCCOc1nsnc1C1=CCCN(C)C1", "note": "[CDD-0299-A, 12-[3-(1-Methyl-1,2,5,6-tetrahydropyrid-3-yl)-1,2,5-thiadiazol-4-yloxy]-1-dodecyl acetate hydrochloride]", "values": [
      {"measurement": "Ki", "setting": "M1 muscarinic receptors", "result": "16 ± 13", "unit": "nM"},
      {"measurement": "EC50", "setting": "[1]", "result": 3400, "unit": "nM"},
      {"measurement": "Phosphoinositide metabolism Smax", "setting": "[1]", "result": "280 ± 17", "unit": "%"}
    ]},
    {"smiles": "CN1CCC=C(c2nsnc2OCCOCCOCCOCCO)C1", "note": "[CDD-0300-A, Tetra(ethylene glycol) mono[3-(1-methyl-1,2,5,6-tetrahydropyrid-3-yl)-1,2,5-thiadiazol-4-yl] ether hydrochloride]", "values": [
      {"measurement": "Ki", "setting": "M1 muscarinic receptors", "result": "150 ± 42", "unit": "nM"},
      {"measurement": "EC50", "setting": "[1]", "result": 710, "unit": "nM"},
      {"measurement": "Phosphoinositide metabolism Smax", "setting": "[1]", "result": "240 ± 64", "unit": "%"}
    ]},
    {"smiles": "CCOCCOCCOCCOCCOc1nsnc1C1=CCCN(C)C1", "note": "[CDD-0301-A, Tetra(ethylene glycol) ethyl [3-1-methyl-1,2,5,6-tetrahydropyrid-3-yl)-1,2,5-thiadiazol-4-yl] ether hydrochloride]", "values": [
      {"measurement": "Ki", "setting": "M1 muscarinic receptors", "result": "570 ± 220", "unit": "nM"},
      {"measurement": "EC50", "setting": "[1]", "result": 29000, "unit": "nM"},
      {"measurement": "Phosphoinositide metabolism Smax", "setting": "[1]", "result": "420 ± 220", "unit": "%"}
    ]},
    {"smiles": "CC(=O)OCCOCCOCCOCCOc1nsnc1C1=CCCN(C)C1", "note": "[CDD-0303-A, Tetra(ethylene glycol) [3-(1-methyl-1,2,5,6-tetrahydropyrid-3-yl)-1,2,5-thiadiazol-4-yl] ether acetate hydrochloride]", "values": [
      {"measurement": "Ki", "setting": "M1 muscarinic receptors", "result": "280 ± 130", "unit": "nM"}
    ]},
    {"smiles": "COc1nsnc1OCCOCCOCCOCCOc1nsnc1C1=CCCN(C)C1", "note": "[CDD-0304-A, Tetra(ethyleneglycol)(4-methoxy-1,2,5-thiadiazol-3-yl)[3-(1-methyl-1,2,5,6-tetrahydropyrid-3-yl)-1,2,5-thiazdiazol-4-yl] ether hydrochloride]", "values": [
      {"measurement": "Ki", "setting": "M1 muscarinic receptors", "result": "38 ± 23", "unit": "nM"},
      {"measurement": "EC50", "setting": "[1]", "result": 64, "unit": "nM"},
      {"measurement": "Phosphoinositide metabolism Smax", "setting": "[1]", "result": "600 ± 56", "unit": "%"}
    ]}
  ]
}
